Literature values as cited in patent US6946461B2, “Imidazolophthalazine derivatives as ligands for GABAA receptors” (Merck Sharp & Dohme Ltd., priority 2000, dated 2005).

What was measured:
spatial learning = details: reported by McNamara and Skelton
[1] = in vivo

COC(=O)c1cc2c(cn1)[nH]c1ccccc12 [β-CCM]
spatial learning in the Morris watermaze (spatial learning): enhanced spatial learning
proconvulsant effect [1]: proconvulsant
